Assay results from ChEMBL document CHEMBL3124856, “Design, synthesis, and pharmacological evaluation of a novel series of pyridopyrazine-1,6-dione γ-secretase modulators” (J Med Chem, 2014).
Active and inactive are the calls of the source. The rule behind the calls is not given here.

Legend:
[1] = Apparent intrinsic clearance in rat liver microsomes; format: ADME; settings: read-out: CLH(app)
[2] = Apparent intrinsic clearance in human liver microsomes; format: ADME; settings: read-out: CLH(app)
MDR1 (human) = assay: Efflux ratio of permeability in MDCK cells expressing human MDR1; format: ADME, cell-based, Canis lupus familiaris; settings: dog
Gamma-secretase [3] = assay: Modulation of gamma-secretase (unknown origin) expressed in CHO cells overexpressing human wild type APP assessed as reduction of amyloid beta 42 level after 24 hrs by ELISA; format: cell-based
[4] = Bioavailability in rat at 1 mg/kg, iv and 5 mg/kg, po; format: ADME, organism-based; settings: in vivo
[5] = target: T1, Gamma-secretase (Homo sapiens) (UniProt Q96BI3+Q9NZ42+Q8WW43+P49768+Q92542+P49810); assay: Binding affinity to gamma-secretase in human HeLa cells assessed as labeling of PS1-NTF at 5 uM by Western blot analysis in presence of (S)-1-(1-(4-fluorophenyl)ethyl)-3-(3-methoxy-4-(4-methyl-1H-imidazol-1-yl)benzylidene)piperidin-2-one; format: cell-based
[6] = target: T1, Gamma-secretase (Homo sapiens); assay: Binding affinity to gamma-secretase in human HeLa cells assessed as labeling of PS1-NTF at 5 uM by Western blot analysis in presence of GSI-L458; format: cell-based
[7] = target: T1, Gamma-secretase (Homo sapiens); assay: Binding affinity to gamma-secretase in human HeLa cells assessed as labeling of PS1-NTF at 5 uM by Western blot analysis; format: cell-based
[8] = target: T1, Gamma-secretase (Homo sapiens); assay: Binding affinity to gamma-secretase in human HeLa cells assessed as labeling of PS1-NTF at 5 uM by Western blot analysis in presence of 2-[2-(7-Fluoronaphthalen-1-yloxy)ethyl]-7-(4-methyl-1H-imidazol-1-yl)-3,4-dihydro-1H-pyrido[1,2-a]pyrazine-1,6(2H)-dione; format: cell-based
Gamma-secretase [9] = assay: Inhibition of gamma-secretase in human HeLa cells assessed as reduction of amyloid beta 42 level preincubated for 30 mins measured after 1.5 hrs by Western blotting analysis; format: cell-based

| CLint scaled [1] | CLint scaled [2] | efflux ratio (MDR1 (human)) | IC50 (Gamma-secretase [3]) | bioavailability [4] | Activity [5] | Activity [6] | Activity [7] | Activity [8] | IC50 (Gamma-secretase [9]) | Structure (SMILES) |
| --- | --- | --- | --- | --- | --- | --- | --- | --- | --- | --- |
| < 25.4 mL/min/kg | < 8 mL/min/kg | 1.5 | 1630 nM |  |  |  |  |  |  | Cc1cn(-c2ccc3n(c2=O)CCN(Cc2cccc(C(F)(F)F)c2)C3=O)cn1 |
|  | 36.1 mL/min/kg | 1.2 | 3400 nM |  |  |  |  |  |  | COc1c(-n2cnc(C)c2)ccc2c(=O)n(CCc3cccc(Cl)c3)ccc12 |
| 79.4 mL/min/kg | < 8 mL/min/kg | 1.2 | 530 nM |  |  |  |  |  |  | Cc1cn(-c2ccc3n(c2=O)CCN(CCOc2cccc(C(F)(F)F)c2)C3=O)cn1 |
|  | 32.7 mL/min/kg | 1 | > 15800 nM |  |  |  |  |  |  | COc1cc2c(=O)n(CCc3cccc(Cl)c3)ccc2cc1-n1cnc(C)c1 |
| 97 mL/min/kg | 12.7 mL/min/kg | 1.5 | 311 nM | 23% |  |  |  |  |  | Cc1cn(-c2ccc3n(c2=O)CCN(CCOc2ccccc2C(F)(F)F)C3=O)cn1 |
|  |  |  |  |  | inactive | inactive | Active | Active | 135 nM | C#CCCCOc1ccc(C(=O)c2cccc(OCCN3CCn4c(ccc(-n5cnc(C)c5)c4=O)C3=O)c2)cc1 |
| 469 mL/min/kg | 30 mL/min/kg | 1.5 | 15 nM |  |  |  |  |  |  | Cc1cn(-c2ccc3n(c2=O)CCN(CCOc2cccc4ccc(F)cc24)C3=O)cn1 |
| 117 mL/min/kg | < 10.4 mL/min/kg | 1.5 | 1500 nM |  |  |  |  |  |  | Cc1cn(-c2ccc3n(c2=O)CCN(CCOc2ccccc2Cl)C3=O)cn1 |
